Holding throughout (format): cell-based
One assay addresses T1, hGIPR (Homo sapiens, UniProt P48546).
T1 construct: expressed in transfected cells
T1 sequence (P48546 22-466): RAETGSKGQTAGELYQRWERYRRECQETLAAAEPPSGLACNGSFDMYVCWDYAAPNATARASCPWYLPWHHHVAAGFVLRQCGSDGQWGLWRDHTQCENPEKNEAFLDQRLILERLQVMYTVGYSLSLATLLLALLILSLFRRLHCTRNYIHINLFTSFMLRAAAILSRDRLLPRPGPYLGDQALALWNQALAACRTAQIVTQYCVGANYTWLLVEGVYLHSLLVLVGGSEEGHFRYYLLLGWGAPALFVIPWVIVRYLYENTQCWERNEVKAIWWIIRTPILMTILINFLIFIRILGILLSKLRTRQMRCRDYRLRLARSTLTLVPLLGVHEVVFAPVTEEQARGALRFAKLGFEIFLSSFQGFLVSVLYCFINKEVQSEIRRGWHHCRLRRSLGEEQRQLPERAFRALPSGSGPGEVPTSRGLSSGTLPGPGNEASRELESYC
The experiment in a line: Functional cAMP formation (HTRF) in HEK-293 clonal cells expressing hGIPR, 0.1% bovine casein, without or with 1.0% human serum albumin. Particulars: for EC50: 37° C., geometric mean, read-out: hGIPR EC50, nM (SEM, n). An outline of the steps: (§1)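 Readings of the HTRF 665/620 nm ratio, which falls as cAMP rises, were converted to nM cAMP using a standard curve after 30 min peptide exposure at 37° C.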
(Changes in cAMP serve as a functional read-out for many G protein-coupled receptors.)

Another assay concerns the target T2, hGCGR (Homo sapiens, UniProt P47871).
T2 construct: expressed in transfected cells
The experiment in a line: Functional cAMP formation (HTRF) in HEK-293 clonal cells expressing hGCGR, 0.1% bovine casein, without or with 1.0% human serum albumin. Particulars: 37° C., geometric mean. An outline of the steps: as §1

A further assay concerns the target hGLP-1R (Homo sapiens, UniProt P43220). Nature of the assay: Functional cAMP formation (HTRF) in HEK-293 clonal cells expressing hGLP-1R, 0.1% bovine casein, without or with 1.0% human serum albumin. Set-up: expressed in transfected cells. Particulars: 37° C.; for Emax: percent of maximal response to GLP-1(7-36)NH2, read-out: hGLP-1R Emax, % ± SEM; for EC50: cAMP, 0.1% bovine casein (no human serum albumin), geometric mean. Put shortly: as §1

A word on the EC50: it is the concentration at which the effect is half-maximal. By Emax is commonly meant the greatest response seen or fitted, relative to the assay's reference.

Read-outs that look alike come from different tables or passages of the source.

T2 sequence (P47871 26-477): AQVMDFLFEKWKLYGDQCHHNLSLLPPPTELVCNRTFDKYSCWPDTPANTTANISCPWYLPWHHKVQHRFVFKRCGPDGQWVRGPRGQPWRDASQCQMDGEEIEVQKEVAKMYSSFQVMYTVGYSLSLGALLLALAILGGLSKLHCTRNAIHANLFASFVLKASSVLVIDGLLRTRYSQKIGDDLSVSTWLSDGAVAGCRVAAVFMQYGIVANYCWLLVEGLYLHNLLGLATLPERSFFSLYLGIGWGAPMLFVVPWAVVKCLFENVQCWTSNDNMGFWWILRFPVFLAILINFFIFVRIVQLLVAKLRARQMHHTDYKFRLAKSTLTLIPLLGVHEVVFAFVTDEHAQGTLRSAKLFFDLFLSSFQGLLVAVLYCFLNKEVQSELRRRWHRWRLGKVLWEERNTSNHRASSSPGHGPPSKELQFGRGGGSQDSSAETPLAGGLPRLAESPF
Chain of hGLP-1R (P43220 24-463): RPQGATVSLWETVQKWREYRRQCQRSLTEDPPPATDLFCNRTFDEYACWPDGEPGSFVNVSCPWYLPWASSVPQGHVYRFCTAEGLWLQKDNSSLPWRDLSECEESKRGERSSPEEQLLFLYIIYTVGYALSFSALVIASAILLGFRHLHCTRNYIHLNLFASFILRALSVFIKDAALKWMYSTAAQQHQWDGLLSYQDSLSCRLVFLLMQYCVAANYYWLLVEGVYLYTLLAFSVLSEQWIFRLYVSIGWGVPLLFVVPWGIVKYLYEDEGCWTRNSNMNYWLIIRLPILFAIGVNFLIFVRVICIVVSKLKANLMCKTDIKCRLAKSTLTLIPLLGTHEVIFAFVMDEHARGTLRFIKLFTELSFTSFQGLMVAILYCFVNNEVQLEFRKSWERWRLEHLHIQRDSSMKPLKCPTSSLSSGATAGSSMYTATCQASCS

For `CC[C@H](C)[C@H](NC(=O)[C@H](CCCN)NC(=O)[C@H](CC(=O)O)NC(=O)[C@H](CC(C)C)NC(=O)[C@](C)(CC(C)C)NC(=O)[C@@H](NC(=O)C(C)(C)NC(=O)[C@H](Cc1ccc(O)cc1)NC(=O)[C@H](CC(=O)O)NC(=O)[C@H](CO)NC(=O)[C@@H](NC(=O)[C@](C)(Cc1ccccc1F)NC(=O)[C@@H](NC(=O)CNC(=O)[C@H](CCC(=O)O)NC(=O)C(C)(C)NC(=O)[C@@H](N)Cc1ccc(O)cc1)[C@@H](C)O)[C@@H](C)O)[C@@H](C)CC)C(=O)N[C@@H](C)C(=O)N[C@@H](CCC(N)=O)C(=O)NC(C)(C)C(=O)N[C@@H](CCCN)C(=O)N[C@@H](Cc1ccccc1)C(=O)N[C@H](C(=O)N[C@@H](CCCCNC(=O)COCCOCCNC(=O)COCCOCCNC(=O)CC[C@H](NC(=O)CCCCCCCCCCCCC(=O)O)C(=O)O)C(=O)N[C@@](C)(Cc1ccc(O)cc1)C(=O)N[C@@H](CC(C)C)C(=O)N[C@H](C(=O)N[C@@H](CCCCNC(=O)COCCOCCNC(=O)COCCOCCNC(=O)CC[C@H](NC(=O)CCCCCCCCCCCCC(=O)O)C(=O)O)C(=O)NCC(=O)NCC(=O)N1CCC[C@H]1C(=O)N[C@@H](CO)C(=O)N[C@@H](CO)C(=O)NCC(=O)N[C@@H](C)C(=O)N1CCC[C@H]1C(=O)N1CCC[C@H]1C(=O)N1CCC[C@H]1C(=O)N[C@@H](CO)C(N)=O)[C@@H](C)CC)[C@@H](C)CC` [Example 316], the EC50 on hGIPR (0.1% bovine casein and 1.0% human serum albumin) was 1.11 nM; at hGIPR (cAMP, 0.1% bovine casein (no human serum albumin)), 0.0316 nM; at hGCGR (0.1% bovine casein and 1.0% human serum albumin, read-out: hGCGR EC50, nM (SEM, n)), over 9950 nM; at hGCGR (cAMP, 0.1% bovine casein (no human serum albumin), read-out: hGCGR EC50, nM (SEM, n)), over 9950 nM; on hGLP-1R (read-out: hGLP-1R EC50, nM (SEM, n)), 0.571 nM. Further, the Emax was determined as 113% at hGLP-1R (HEK293, 0.1% bovine casein and 1.0% human serum albumin); 109% at hGLP-1R (HEK293, cAMP, 0.1% bovine casein, arithmetic mean).
Consider `CCCC[C@H](NC(=O)[C@H](CC(=O)O)NC(=O)[C@H](CO)NC(=O)[C@@H](NC(=O)[C@](C)(Cc1ccccc1F)NC(=O)[C@@H](NC(=O)CNC(=O)[C@H](CCC(=O)O)NC(=O)C(C)(C)NC(=O)[C@@H](N)Cc1ccc(O)cc1)[C@@H](C)O)[C@@H](C)O)C(=O)N[C@@H](CO)C(=O)N[C@H](C(=O)N[C@@](C)(CC(C)C)C(=O)N[C@@H](CC(C)C)C(=O)N[C@@H](CC(=O)O)C(=O)N[C@@H](CCCN)C(=O)N[C@H](C(=O)N[C@@H](C)C(=O)N[C@@H](CCC(N)=O)C(=O)NC(C)(C)C(=O)N[C@@H](CCC(=O)O)C(=O)N[C@@H](Cc1ccccc1)C(=O)N[C@H](C(=O)N[C@@H](CCCCNC(=O)COCCOCCNC(=O)COCCOCCNC(=O)CC[C@H](NC(=O)CCCCCCCCCOc1ccc(C(=O)O)cc1)C(=O)O)C(=O)N[C@@](C)(Cc1ccc(O)cc1)C(=O)N[C@@H](CC(C)C)C(=O)N[C@H](C(=O)N[C@@H](CCCCNC(=O)COCCOCCNC(=O)COCCOCCNC(=O)CC[C@H](NC(=O)CCCCCCCCCOc1ccc(C(=O)O)cc1)C(=O)O)C(=O)NCC(=O)NCC(=O)N1CCC[C@H]1C(=O)N[C@@H](CO)C(=O)N[C@@H](CO)C(=O)NCC(=O)N[C@@H](C)C(=O)N1CCC[C@H]1C(=O)N1CCC[C@H]1C(=O)N1CCC[C@H]1C(=O)N[C@@H](CO)C(N)=O)[C@@H](C)CC)[C@@H](C)CC)[C@@H](C)CC)[C@@H](C)CC` [Example 314], for which the Emax on hGIPR (HEK293, read-out: hGIPR Emax, % ± SEM, cAMP, 37° C., 0.1% bovine casein, percent of maximal response to GIP(1-42)NH2, arithmetic mean) was determined as 100%. The EC50 is over 9950 nM at hGCGR (hGCGR EC50, nM (SEM, n), 0.1% bovine casein and 1.0% human serum albumin); over 9950 nM on hGCGR (hGCGR EC50, nM (SEM, n), cAMP, 0.1% bovine casein (no human serum albumin)); 0.673 nM at hGLP-1R (hGLP-1R EC50, nM (SEM, n)).

Source of the values: patent publication US20230265151A1, “GIP/GLP1 CO-AGONIST COMPOUNDS” (priority 2020, published 2023).
